Experimental data published in PubChem BioAssay (NCI).
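Step 1: Grow cells in 96-well plates. Step 2: Expose to compound for 48 hours at 5 concentrations. Step 3: Interpolate endpoints linearly; if unreached, use highest concentration. GI50: concentration for 50% inhibition of growth. At the TGI there is no net growth.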

Key:
Assay in all cases: NCI anticancer screen, dose series, 48 h
[1] = test system: A549 NSCLC
[2] = test system: U251 CNS
[3] = test system: SNB-19 CNS
[4] = test system: HCT-116 colon
[5] = test system: HCC-2998 colon
[6] = test system: SK-OV-3 ovarian
[7] = test system: NCI-H522 lung
[8] = test system: HT29 colon
[9] = test system: OVCAR-8 ovarian
[10] = test system: HL-60(TB) leukemia

Row | SMILES | GI50 [1] [nM] | TGI [1] [nM] | GI50 [2] [nM] | TGI [2] [nM] | GI50 [3] [nM] | TGI [3] [nM] | GI50 [4] [nM] | TGI [4] [nM] | GI50 [5] [nM] | TGI [5] [nM] | GI50 [6] [nM] | TGI [6] [nM] | GI50 [7] [nM] | TGI [7] [nM] | TGI [8] [nM] | GI50 [9] [nM] | TGI [9] [nM] | GI50 [10] [nM] | GI50 [8] [nM] | TGI [10] [nM]
1 | CN([N-]C(=O)CC(=O)[N-]N(C)C(=S)c1ccccc1)C(=S)c1ccccc1.[Cu+2] | 22.3 | 119 | 33.1 | 125 | 129 | 261 | < 10 | 14 | 59.8 | 176 | 26.3 | 114 | < 13 | 28.1 | 27.5 | 59.8 | 232 | 66.3 |  | 
2 | COc1ccc(S(=O)(=O)N2CCCCC2)cc1NC(=O)c1[nH]c(C)c2c1CCCCC2=O | 2260 | 15000 | 2290 | 70400 | 3800 | > 100000 | 1320 | 19300 | 1730 | 11100 | 2140 | 44400 | 374 | 7730 | 21700 | 2190 | 46600 | 444 | 822 | 6860
3 | COc1cc(C)c(N(C)C(=O)CN(C)C)cc1Nc1nc(Nc2cccc(F)c2C(N)=O)c2cc[nH]c2n1 | > 25000 | > 25000 | > 25000 | > 25000 | > 25000 | > 25000 | 15700 | > 25000 | > 23100 | > 25000 | > 25000 | > 25000 | > 25000 | > 25000 | > 25000 | > 25000 | > 25000 | 3200 | 1370 | > 25000
4 | Cc1cc(C)c(S(=O)(=O)Oc2ccccc2[N+](=O)[O-])c(C)c1 | 4190 | > 100000 | 2360 | > 100000 | 4000 | > 100000 | 1440 | > 100000 | 2950 | > 100000 | 2810 | > 29200 | 1260 | 6560 | > 100000 | 4280 | > 100000 | 367 | 921 | 2500
5 | COc1cccc2c1C(=O)c1c(O)c3c(c(O)c1C2=O)C[C@@](O)(C(=O)COC(=O)c1cccnc1)C[C@@H]3OC1CC(N)C(O)C(C)O1 (stereo partly drawn) | 77.4 | 533 | 66.5 | 592 | 69.1 | 2650 | 47.5 | 492 | 454 | 3500 | 382 | 26000 | 57.4 | 217 | 1530 | 183 | 4850 | 146 | 199 | 1640
6 | COC(=O)/C=C\C1C(C(=O)OC)C2(C(=O)OC)CCC1(C(=O)OC)N2 (stereo not drawn) |  | 39900 |  | 32700 |  | 23800 |  | 27600 |  | 31200 |  | 31900 |  | 1760 | 45700 |  | 19000 |  |  | 6470
